# In ChEMBL document CHEMBL1152783, “Octahydrophenanthrene-2,7-diol analogues as dissociated glucocorticoid receptor agonists: discovery and lead exploration” (J Med Chem, 2009):
# Assays:
# Glucocorticoid receptor [1] = target: T1, Glucocorticoid receptor (Homo sapiens, UniProt P04150); test: Binding affinity to human glucocorticoid receptor
# T1 sequence (P04150 whole entry): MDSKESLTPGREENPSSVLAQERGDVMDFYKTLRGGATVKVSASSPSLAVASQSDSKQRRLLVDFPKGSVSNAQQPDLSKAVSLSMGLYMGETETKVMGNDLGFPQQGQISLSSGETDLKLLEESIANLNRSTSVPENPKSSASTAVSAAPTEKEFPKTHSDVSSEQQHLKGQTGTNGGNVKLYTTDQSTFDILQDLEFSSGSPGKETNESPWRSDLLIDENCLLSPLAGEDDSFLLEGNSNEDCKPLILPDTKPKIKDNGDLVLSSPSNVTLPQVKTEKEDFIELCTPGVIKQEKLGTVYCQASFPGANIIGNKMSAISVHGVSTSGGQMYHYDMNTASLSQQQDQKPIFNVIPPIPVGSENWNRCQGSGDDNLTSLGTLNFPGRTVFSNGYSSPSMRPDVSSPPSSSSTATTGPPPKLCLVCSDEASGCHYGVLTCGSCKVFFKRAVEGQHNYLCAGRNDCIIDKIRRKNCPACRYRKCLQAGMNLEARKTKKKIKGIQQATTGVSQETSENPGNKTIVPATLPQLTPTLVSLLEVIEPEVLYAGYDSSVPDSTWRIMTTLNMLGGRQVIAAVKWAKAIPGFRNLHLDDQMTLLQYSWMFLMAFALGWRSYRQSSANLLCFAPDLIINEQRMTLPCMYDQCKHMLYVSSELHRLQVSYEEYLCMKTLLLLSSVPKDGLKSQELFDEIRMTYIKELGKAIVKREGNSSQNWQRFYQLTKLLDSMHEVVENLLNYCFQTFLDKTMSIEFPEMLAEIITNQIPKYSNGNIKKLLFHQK
# Glucocorticoid receptor [2] = target: T1, Glucocorticoid receptor; test: Transrepression activity at GR in human SW1353 cells assessed as inhibition of IL1-stimulated MMP13 production after 24 hrs by whole cell ELISA; format: cell-based
# Estrogen receptor beta = Estrogen receptor beta (Homo sapiens, UniProt Q92731); test: Binding affinity to human ERbeta
# Androgen receptor = target: T2, Androgen receptor (Homo sapiens, UniProt P10275); test: Binding affinity to human androgen receptor
# T2 sequence (P10275 whole entry): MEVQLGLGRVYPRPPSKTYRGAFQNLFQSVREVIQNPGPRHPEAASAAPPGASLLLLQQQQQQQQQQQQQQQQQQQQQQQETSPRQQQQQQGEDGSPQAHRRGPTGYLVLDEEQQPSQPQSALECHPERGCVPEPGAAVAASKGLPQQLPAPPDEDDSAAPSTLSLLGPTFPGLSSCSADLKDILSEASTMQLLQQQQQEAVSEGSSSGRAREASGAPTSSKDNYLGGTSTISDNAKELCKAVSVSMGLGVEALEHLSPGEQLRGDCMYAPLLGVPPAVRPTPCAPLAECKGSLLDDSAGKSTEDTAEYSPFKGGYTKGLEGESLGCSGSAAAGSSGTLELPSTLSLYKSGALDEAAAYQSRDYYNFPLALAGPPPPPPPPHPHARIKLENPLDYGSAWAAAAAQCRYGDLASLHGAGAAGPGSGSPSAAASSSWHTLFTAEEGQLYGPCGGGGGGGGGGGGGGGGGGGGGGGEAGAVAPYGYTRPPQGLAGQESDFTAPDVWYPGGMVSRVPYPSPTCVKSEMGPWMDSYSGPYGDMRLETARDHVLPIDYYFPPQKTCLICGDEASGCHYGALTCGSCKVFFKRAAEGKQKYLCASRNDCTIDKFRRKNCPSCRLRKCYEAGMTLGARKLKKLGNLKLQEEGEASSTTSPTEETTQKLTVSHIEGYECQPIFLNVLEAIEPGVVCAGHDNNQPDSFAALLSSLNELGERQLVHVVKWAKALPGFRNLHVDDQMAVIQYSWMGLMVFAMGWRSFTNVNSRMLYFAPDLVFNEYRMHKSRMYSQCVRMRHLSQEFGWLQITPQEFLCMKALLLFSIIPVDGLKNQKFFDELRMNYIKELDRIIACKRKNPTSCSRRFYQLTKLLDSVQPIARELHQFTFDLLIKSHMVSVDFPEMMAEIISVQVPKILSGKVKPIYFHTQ
# Estrogen receptor = target: T3, Estrogen receptor (Homo sapiens, UniProt P03372); test: Binding affinity to human ERalpha
# T3 sequence (P03372 whole entry): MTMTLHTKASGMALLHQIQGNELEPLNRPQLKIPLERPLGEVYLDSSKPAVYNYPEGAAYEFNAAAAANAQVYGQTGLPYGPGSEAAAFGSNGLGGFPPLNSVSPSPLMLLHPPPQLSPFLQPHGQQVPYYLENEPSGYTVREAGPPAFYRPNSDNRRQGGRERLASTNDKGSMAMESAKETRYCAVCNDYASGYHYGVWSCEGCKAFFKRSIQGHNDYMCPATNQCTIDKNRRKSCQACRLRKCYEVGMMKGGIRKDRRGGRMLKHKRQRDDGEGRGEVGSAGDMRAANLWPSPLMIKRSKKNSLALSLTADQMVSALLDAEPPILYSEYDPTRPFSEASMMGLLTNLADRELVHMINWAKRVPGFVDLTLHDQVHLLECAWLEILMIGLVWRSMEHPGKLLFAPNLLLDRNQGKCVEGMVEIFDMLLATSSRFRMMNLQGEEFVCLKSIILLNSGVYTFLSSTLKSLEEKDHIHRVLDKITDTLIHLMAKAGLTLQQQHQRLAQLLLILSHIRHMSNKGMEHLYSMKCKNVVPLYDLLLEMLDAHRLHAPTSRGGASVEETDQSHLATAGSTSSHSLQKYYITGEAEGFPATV
# Progesterone receptor = target: T4, Progesterone receptor (Homo sapiens, UniProt P06401); test: Binding affinity to human progesterone receptor
# T4 sequence (P06401 whole entry): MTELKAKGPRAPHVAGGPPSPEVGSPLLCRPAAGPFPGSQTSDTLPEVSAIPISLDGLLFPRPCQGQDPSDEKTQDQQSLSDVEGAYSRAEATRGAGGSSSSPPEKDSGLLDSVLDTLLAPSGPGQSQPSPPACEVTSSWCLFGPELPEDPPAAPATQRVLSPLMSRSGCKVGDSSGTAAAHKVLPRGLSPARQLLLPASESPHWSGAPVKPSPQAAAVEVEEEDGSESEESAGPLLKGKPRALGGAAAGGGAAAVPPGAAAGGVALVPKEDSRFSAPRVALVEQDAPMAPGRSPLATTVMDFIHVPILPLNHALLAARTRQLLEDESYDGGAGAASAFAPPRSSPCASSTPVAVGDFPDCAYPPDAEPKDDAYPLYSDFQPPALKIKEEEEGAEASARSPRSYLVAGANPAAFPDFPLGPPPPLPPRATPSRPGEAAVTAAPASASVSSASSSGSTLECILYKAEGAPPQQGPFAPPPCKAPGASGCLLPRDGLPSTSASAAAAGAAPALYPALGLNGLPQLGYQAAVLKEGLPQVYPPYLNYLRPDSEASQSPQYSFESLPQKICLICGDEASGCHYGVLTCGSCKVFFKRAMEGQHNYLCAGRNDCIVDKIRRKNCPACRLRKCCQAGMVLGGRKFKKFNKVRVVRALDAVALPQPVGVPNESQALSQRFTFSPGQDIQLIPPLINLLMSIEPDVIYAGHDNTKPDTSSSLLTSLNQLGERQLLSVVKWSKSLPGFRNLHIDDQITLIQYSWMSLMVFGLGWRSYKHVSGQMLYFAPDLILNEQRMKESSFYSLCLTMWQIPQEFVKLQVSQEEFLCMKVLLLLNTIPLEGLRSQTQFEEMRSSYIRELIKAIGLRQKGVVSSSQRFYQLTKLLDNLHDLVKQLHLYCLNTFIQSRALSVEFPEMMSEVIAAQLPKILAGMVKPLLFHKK
# Glucocorticoid receptor [3] = target: T1, Glucocorticoid receptor; test: Transrepression activity at GR in human SW1353 cells assessed as suppression of NFkappaB-induced IL8 production; format: cell-based
# Chain of Estrogen receptor beta (Q92731 whole entry): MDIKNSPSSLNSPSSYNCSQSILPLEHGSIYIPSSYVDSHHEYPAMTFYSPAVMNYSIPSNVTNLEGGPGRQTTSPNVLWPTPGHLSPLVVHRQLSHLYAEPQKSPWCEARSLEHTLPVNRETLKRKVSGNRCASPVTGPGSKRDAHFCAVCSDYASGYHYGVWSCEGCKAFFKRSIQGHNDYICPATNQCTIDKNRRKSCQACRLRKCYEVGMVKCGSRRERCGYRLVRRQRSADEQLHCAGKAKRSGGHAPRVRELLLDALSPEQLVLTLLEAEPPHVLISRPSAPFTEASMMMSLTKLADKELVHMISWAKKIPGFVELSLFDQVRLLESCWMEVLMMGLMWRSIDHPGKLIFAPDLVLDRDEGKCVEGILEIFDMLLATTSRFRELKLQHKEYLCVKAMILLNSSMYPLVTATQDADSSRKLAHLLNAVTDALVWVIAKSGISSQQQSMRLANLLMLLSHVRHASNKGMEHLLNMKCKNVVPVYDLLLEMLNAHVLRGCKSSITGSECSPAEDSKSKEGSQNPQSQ
IC50 (Glucocorticoid receptor [1]) [nM],IC50 (Glucocorticoid receptor [2]) [nM],IC50 (Estrogen receptor beta) [nM],IC50 (Androgen receptor) [nM],IC50 (Estrogen receptor) [nM],IC50 (Progesterone receptor) [nM],IC50 (Glucocorticoid receptor [3]) [nM],Compound
3.3,15,> 10000,> 10000,> 10000,> 10000,,CC#C[C@]1(O)C[C@H]2CCc3cc(OCc4cccnc4C)ccc3[C@]2(CC)C[C@@H]1O
3.5,> 5000,,,,,,CC#C[C@@]1(O)CC[C@@]2(/C=C/C)c3ccc(O)cc3CC[C@@H]2C1
6.2,14,250,> 1000,93,1100,34,"C=CCC12CC[C@](O)(C#CC)C[C@H]1CCc1cc(O)ccc12 (single isomer, unassigned)"
> 1000,,,,,,,CC#C[C@@]1(O)CC[C@@]2(CO)c3ccc(O)cc3CC[C@@H]2C1
2.5,140,660,> 10000,3400,750,,CC[C@@]12C[C@H](O)[C@](O)(c3ccccc3)C[C@H]1CCc1cc(O)ccc12
17,> 5000,,,,,,CC#C[C@@]1(O)CC[C@@]2(C)c3ccc(O)cc3CC[C@@H]2C1
6,1500,,,,,,CC[C@@]12CC[C@](O)(c3ccccc3)C[C@H]1CCc1cc(OCc3cccnc3C)ccc12
21,> 5000,,,,,,CC[C@@]12CC[C@](O)(c3ccccc3)C[C@H]1CCc1cc(O)ccc12
35,63,> 10000,> 10000,> 10000,> 10000,,CC#C[C@]1(O)C[C@H]2CCc3cc(O)ccc3[C@]2(CC)C[C@@H]1O
> 1000,,,,,,,CC#C[C@@]1(O)CC[C@@]2(CCO)c3ccc(O)cc3CC[C@@H]2C1
360,,> 10000,> 10000,> 10000,,,CC#C[C@]1(O)C[C@H]2CCc3cc(O)ccc3[C@]2(CC)[C@H](O)C1
3.8,5000,,,,,,CC[C@@]12C[C@@H](O)[C@](O)(c3ccccc3)C[C@H]1CCc1cc(O)ccc12

Compound,IC50 (Glucocorticoid receptor [1]) [nM],IC50 (Glucocorticoid receptor [2]) [nM],IC50 (Estrogen receptor beta) [nM],IC50 (Androgen receptor) [nM],IC50 (Estrogen receptor) [nM],IC50 (Progesterone receptor) [nM],IC50 (Glucocorticoid receptor [3]) [nM]
CC[C@@]12C[C@H](O)[C@](O)(c3ccccc3)C[C@H]1CCc1cc(OCc3cccnc3C)ccc12,1.5,38,> 10000,> 10000,> 10000,> 1000,
CC#C[C@@]1(O)CC[C@@]2(CC)c3ccc(O)cc3CC[C@@H]2C1,5.6,14,580,420,89,2600,
CC#C[C@@]1(O)CC[C@@]2(CCC)c3ccc(O)cc3CC[C@@H]2C1,1.5,> 5000,,,,,
CC#C[C@@]1(O)CC[C@@]2(CC)c3ccc(OCc4ccncc4)cc3CC[C@@H]2C1,3,31,3500,,670,,
CC[C@@]12C[C@H](O)[C@H](c3ccccc3)C[C@H]1CCc1cc(O)ccc12,1.3,1100,,,,,
CC#C[C@@]1(O)CC[C@@]2(CC)c3ccc(OCc4cccnc4C)cc3CC[C@@H]2C1,2.3,6.3,> 10000,880,> 10000,,
